Common to all, as to assay type: in vivo, mouse
One assay relates to KPC pancreatic tumors. The experiment in a line: Monitoring of KPC pancreatic tumor volume by 3D high resolution ultrasonography. Particulars: gemcitabine 100 mg/kg twice weekly, Compound A 40 ug/kg/day, or both. An excerpt: For survival studies, mice were enrolled following the detection of 5-10 mm diameter tumor by ultrasound. Tumors were quantified by 3D ultrasound twice weekly until endpoint. High resolution ultrasound (US) imaging of normal and diseased mouse pancreas using the Vevo 770 System with a 35 MHz RMV scanhead (Visual Sonics, Inc.). 3D images were produced using the 3D motor arm to collect serial images at 0.25 mm intervals through the thickness of the tumor. Tumors were outlined on each 2D image and reconstructed to quantify the 3D volume using the integrated Vevo 770 software package.

The test system of the next assay is Gli1. Kind of assay: Gli1 expression in KPC tumors by quantitative real-time PCR. Conditions: 40 mg/kg Compound A oral, treated for 4 days, vs control. The protocol:
KPC mice harboring pancreatic tumors were treated with 40 mg/kg of Compound A by oral gavage, either singly, once daily for four days or at as part of a survival study. […] Six hours following the final dose, tissue samples were harvested, snap frozen in liquid nitrogen and stored at −80° C. Mice with abdominal ascites were excluded from analysis. Samples were analyzed by LC/MS, as described below.
RNA was isolated from tissues using the RNeasy kit (Qiagen). cDNA was synthesized from 1-2 ug of RNA using the AffinityScript QPCR cDNA Synthesis Kit (Stratagene). cDNA was analyzed by quantitative real-time PCR on a 7900HT Real-Time PCR system using relative quantification (ΔΔct) with the taqman gene expression assays (Applied Biosystems) (Table 7). Experiment was performed on 5 KPC tumors and 7 syngeneic tumors derived from K8484 or K8675 cells.

The test system of assay [1] is KPC tumors. The experiment in a line: Proliferation of KPC tumors (phospho-histone H3 immunohistochemistry). Conditions: 4 days or 8-12 days of treatment. Here is the method: Tissues were fixed in 10% formalin solution for 24 hours and transferred to 70% ethanol. Tissues were paraffin embedded, sectioned and rehydrated. For CD31 IHC, sections were unmasked in 10 mM EDTA, pH 8.0 in a pressure cooker. For all other antibodies, sections were unmasked in 10 mM citric acid in a pressure cooker. Endogenous peroxidases were quenched in 3% H2O2/PBS for 20 minutes. Remaining steps were carried out with Vectastain ABC kits appropriate to the species of primary antibody (Vector Labs, Burlingame, Calif.) with the following modification: blocking serum was supplemented with Protein Blocking Agent (Immunotech/BeckmanCoulter, Fullerton, Calif.) diluted 1:50. Antigens were developed with DAB Peroxidase Substrate (Vector Labs). The following antibody dilutions were used: Phospho-Histone H3, 1:100 (#9701, Cell Signaling Technology); Cleaved Caspase 3, 1:100 (#9661, Cell Signaling Technology); CD31, 1:75 (SC-1506). Slides were counterstained with hematoxylin.

In another assay the test system is KPC tumor blood vessels. Kind of assay: Vessel patency: lectin perfusion with CD31 staining in KPC tumors. Particulars: KPC mice treated 10 days; vs untreated or gemcitabine tumors. Here is the method: To assess the functional vasculature, biotin-conjugated Lycopersicon esculentum lectin (B1175-1 mg, Vector Laboratories) was resuspended in 425 μL PBS and mixed with 75 μL of 1 mg/mL Streptavidin-AlexaFluor 633 (S21375, Molecular Probes) (in sterile PBS). Prior to use, the lectin-avidin mixture was centrifuged 14,000 k on a microfuge for 10 minutes to remove any particulate. Fifteen minutes prior to euthanasia, 100 μl (0.4 mg total) of the conjugated lectin was administered as a slow intravenous infusion over 5 minutes, and the hemodynamics monitored closely to ensure that it was tolerated. For doxorubicin experiments, five minutes prior to euthanasia mice were also infused with a 20 mg/kg doxorubicin solution (D-1515.10 mg, in sterile saline, Sigma) over one minute.
While under terminal anesthesia, mice were perfused with 4% paraformaldehyde in PBS, pH 7.4. Perfused tissues were harvested, fixed overnight in 4% paraformaldehyde in PBS, pH 7.4 and transferred to 70% ethanol. Tissues were embedded in paraffin, sectioned, rehydrated, and counterstained with DAPI. The lectin labeling experiments were reproduced independently in a second laboratory (SRH, KI).
Mice were infused with 30 ml of 4% PFA pH 7.4 using a Harvard Apparatus PhD 2000 syringe pump at a rate of […]. […] Doxorubicin fluorescence was excited with a 488 nm laser, and emission was detected in a range from 520-620 nm. […]

The subject of assay [2] is KPC tumors. Kind of assay: Histology (H&E) of treated KPC tumors. Conditions: KPC tumors after 8-12 days of treatment.

Entries after “also recorded” stand apart in the source; their conditions may differ.

Take `CC1=C2C[C@H]3[C@@H](CC[C@@H]4C[C@H](NS(C)(=O)=O)CC[C@@]43C)[C@@H]2CC[C@@]2(C1)O[C@@H]1C[C@H](C)CN[C@H]1[C@H]2C.Cl` [Compound A]: in the assay with KPC pancreatic tumors, the “objective (ultrasonographic) response, responding mice/treated mice” value is 2/10. Also, the Gli1 expression entry with Gli1 is “significant decrease; also recorded: significantly lower”. Besides, the “proliferation of KPC tumors” value in the assay with KPC tumors [1] was “little appreciable effect; also recorded: unchanged”. Moreover, in the assay with KPC tumor blood vessels, the “vessel patency (percent of CD31 positive vessels perfused with lectin)” value is given as “increased vessel patency”. In the assay with KPC tumors [2], the “tumor stroma / histological pattern” value was “dramatically altered histological patterns; also recorded: loss of cellular and acellular stroma”.

The values above are taken from US20120020876A1, “HEDGEHOG PATHWAY INHIBITORS” (priority 2009, published 2012).
